Laboratory results reported in patent US8168644B2, “Quinazolinone derivatives as tubulin polymerization inhibitors” (Janssen Pharmaceutica NV, priority 2008, dated 2012).

Tests used:
[1] = system: Human prostate cancer PC-3 cells; experiment: Anti-proliferative effect, Alamar Blue assay, PC-3; type: cell-based; design: key to PC3 antiproliferative activity pIC50: pIC50 = negative log of IC50 (conc. reducing growth to 50% of control); details: 4-day incubation; for IC50: Homo sapiens, 96 h, read-out: PC3 antiproliferative activity pIC50 (converted)
Protocol: Human prostate cancer PC-3 cells obtained from the ATCC were cultured in HAM'S F12 medium supplemented with 1 mM Sodium Pyruvate, 1.5 g/L Sodium Bicarbonate, 50 μg/ml gentamicin, non-essential amino acids and 10% fetal calf serum.
(§1) Resazurin was purchased from Aldrich (Prod. No. 199303). Potassium ferrocyanide, potassium ferricyanide, KH2PO4 and K2HPO4 were purchased from Sigma (Prod. Nos. P9387, P8131, P5655 and P8281, respectively).
(§2) Potassium Phosphate Buffer 0.1 M (PPB) was made as follows: 2.72 gram KH2PO4 and 13.86 gram K2HPO4 were dissolved in 500 ml milli-Q H2O, the pH was adjusted to pH 7.4 and the volume was brought to 1 liter with milli-Q H2O; the buffer was filter sterilised and stored at room temperature. Resazurin stock solution (PPB-A) was prepared fresh by dissolving 45 mg resazurin in 15 ml PBS. 30 mM potassium ferricyanide (PPB-B) was prepared by dissolving 0.987 gram potassium ferricyanide in 100 ml PPB. 30 mM potassium ferrocyanide (PPB-C) was prepared by dissolving 1.266 gram potassium ferrocyanide in 100 ml PPB.
(§3) Mixture of PPB-A, PPB-B and PPB-C was prepared by mixing equal volumes of the respective solutions. Resazurin work solution (herein termed “Alamar Blue” solution) was prepared by diluting said mixture 20× (vol/vol) in PPB and filter sterilising; the Alamar Blue solution could be kept at 4° C. for a maximum of 2 weeks.
(§4) For experiments in 384 wells plates the cells were seeded at a density of 4.5×10^3 cells/ml in Falcon 384-well culture plates (Life Technologies, Merelbeke, Belgium), black with clear bottom, in 45 μl culture medium. Cells were allowed to adhere to plastic for 24 hours. The tested compound was pre-diluted (1/50 in culture medium) and 5 μl pre-diluted compound was added to the wells. Following 4-day incubation, 10 μl of the Alamar Blue solution was added to each well and the cells were further incubated for 4 hours (HCT116) or 24 hours (PC-3) at 37° C. The fluorescence intensity was measured for each well on a Fluorescence plate reader (Fluoroskan, Labsystems, 540 nm excitation and 590 nm emission)
(§5) The antiproliferative activity was calculated as percentage of remaining viable cells in treated versus control (untreated cells) conditions. Within an experiment, the result for each experimental condition is the mean of 3 replicate wells. When appropriate, the experiments were repeated to establish full concentration-response curves. When appropriate, IC50-values (concentration of the drug, needed to reduce cell growth to 50% of the control) were computed using probit analysis for graded data (Finney, D. J., Probit Analyses, 2nd Ed. Chapter 10, Graded Responses, Cambridge University Press, Cambridge 1962). Herein the effects of test compounds are expressed as pIC50 (the negative log value of the IC50-value) (see Table 3).

α-β-Tubulin = α-β-Tubulin polymerization assay; type: biochemical; design: key: a compound showing 0 to 50% inhibition at 20 μM is reported as score 1; Score 2 compounds are defined as compound showing more than 50% inhibition at 20 μM and less than 50% inhibition at 5 μM; a compound showing more than 50% inhibition at 5 μM is reported as score 3; details: inhibition of polymerization at 20 μM and 5 μM, reported as score
Protocol: The tubulin polymerization assay is an adaptation of an assay originally described by Bonne, D. et al. (J. Biol. Chem., 1985, 260:2819-25). The assay kit was purchased from Cytoskeleton, Inc. (catalogue number BK011) and the assay was performed as described by the supplier with the following modifications. The assay was run in a 384-well black Proxiplate (Perkin Elmer) and volumes were adapted accordingly. The reactions were carried out in a final volume of 10 μl. Compounds were added to 25 μl of the reaction mix in 96-well PP plates (Corning) on ice and 10 μl of this mixture was dispensed into duplicates of the 384-well Proxiplates pre-warmed to 37° C. in a Fluoroskan Ascent plate reader (Thermo Scientific). Fluorescence measurements were taken every minute for one hour. The maximum slope of each well was determined (linear regression through 4 consecutive points) and polymerization was calculated as a percentage of polymerization observed in the absence of compound. Compounds were first measured at a concentration of 20 μM and then at 5 μM for those showing more than 50% inhibition at 20 μM as compared to the polymerization observed in the absence of compound. Results are reported in Table F-2 as scores defined as: a compound showing 0 to 50% inhibition at 20 μM is reported as score 1; a compound showing more than 50% inhibition at 5 μM is reported as score 3.

[2] = system: human prostate cancer PC3 cells; experiment: Eb1 cellular assay (Eb1 Comet assay); type: cell-based; details: 1 hour treatment, LAC = concentration where Eb1 foci absent in at least 50% of treated cells
Protocol: The Eb1 Comet assay relies on the detection of the Eb1 protein at the plus end of polymerizing microtubules (Mimori-Kiyosue, 2000) using indirect immunofluorescence. Disruption of microtubule dynamics through de-polymerization or stabilization results in a de-localization of Eb1 from the growing microtubule ends and this is visualized by the disappearance of Eb1 containing cytoplasmic foci.
Briefly, human prostate cancer PC3 cells obtained from the American Type Culture Collection were grown in 96-well plates (Greiner, cat. no. 655090) in HAM's F12 medium as recommended by the provider (ATCC). The cells were treated for 1 hour at 37° C. with compounds dissolved in DMSO (0.6% final DMSO concentration). The culture medium was then removed by aspiration and the cells were fixed by adding cold methanol (−20° C.). After a 15 minutes incubation at −20° C., the cells were washed twice with DPBS (Gibco) containing 0.5% Triton X-100. Mouse Eb1 antibody (BD Transduction Laboratories, cat. no. 610534) was added to the cells (1/250 dilution in DPBS containing 1% BSA) and incubated overnight at room temperature. The antibody was subsequently removed and the cells washed twice with DPBS, 0.5% Triton X-100. Secondary goat anti-mouse antibody conjugated to Alexa 488 fluorescent dye (Molecular Probes) was added at a 1/500 dilution in DPBS, 1% BSA and incubated for 1 hour at 37° C. The cells were washed twice with DPBS, 0.5% Triton X-100 and then DPBS containing 0.5% Triton X-100 and 1/5000 Hoechst 33342 (Molecular Probes) was added. Microscopy based Eb1 foci visualization was carried out using an IN Cell Analyser 1000 (Amersham Biosciences) using a 20× objective. Compound dependent microtubule disruption was visually determined by the disappearance in Eb1 foci. The lowest active concentration (LAC) was determined as the concentration where Eb1 foci were absent in at least 50% of the treated cells. Herein the effects of test compounds are expressed as pLAC (the negative log value of the LAC-value) (see Table 3).

[3] = system: Human colon carcinoma HCT116 cells; experiment: Anti-proliferative effect, Alamar Blue assay, HCT116; type: cell-based; details: 4-day incubation; for IC50: Homo sapiens, HCT-116, 96 h, read-out: HCT116 antiproliferative activity pIC50 (converted)
Protocol: Human colon carcinoma HCT116 cells obtained from the ATCC were cultured in McCoy's 5A medium supplemented with 2 mM L-Glutamine, 50 μg/ml gentamicin and 10% heat inactivated fetal calf serum.
as §1, §2, §3, §4, §5

IC50 [1] | IC50 [3] | melting point | PC3 antiproliferative activity pIC50 [1] | HCT116 antiproliferative activity pIC50 [3] | Structure (SMILES) | tubulin polymerization score (α-β-Tubulin) | Eb1 pLAC [2]
316 nM | 316 nM | – | – | – | CCN1Cc2ccc(C(C#N)(CC)Cc3cccc(C#N)c3)cc2NC1=O (stereo not drawn) [Compound 2] | 3 (a compound showing more than 50% inhibition at 5 μM is reported as score 3) | 7
> 10000 nM | > 10000 nM | 124 °C | – | – | CCN1Cc2ccc([C@@](C)(C#N)Cc3ccccc3)cc2NC1=O [Compound 3] | 1 (a compound showing 0 to 50% inhibition at 20 μM is reported as score 1) | –
398 nM | 316 nM | – | – | – | CCN1Cc2ccc(C(C)(C#N)Cc3cccc(C#CCO)c3)cc2NC1=O (stereo not drawn) [Compound 11] | 3 (a compound showing more than 50% inhibition at 5 μM is reported as score 3) | 7
1260 nM | 631 nM | – | – | – | CCN1Cc2ccc(C(C)(C#N)CNCc3ccc(C#N)cc3)cc2NC1=O (stereo not drawn) [Compound 12] | – | –
100 nM | 79.4 nM | 226 °C | – | – | CCN1Cc2ccc([C@](C)(C#N)[C@@H]3CCc4c(Cl)ccnc43)cc2NC1=O [Compound 13] | – | –
1260 nM | 501 nM | – | – | – | CCN1Cc2ccc([C@@](C)(C#N)[C@@H]3CCc4c(Cl)ccnc43)cc2NC1=O [Compound 14] | – | –
200 nM | 100 nM | – | – | – | CCN1Cc2ccc(C(C)(C#N)CCOc3ccc(C#N)cc3)cc2NC1=O (stereo not drawn) [Compound 15] | – | –
– | – | – | 5.9 | 6.2 | CCN1Cc2ccc(C(C)(C#N)Cc3ccccc3)cc2NC1=O (stereo not drawn) [Compound 16] | 2 | 6
– | – | – | 6.6 | 6.8 | CCN1Cc2ccc(C(C)(C#N)Cc3cccc(C#N)c3)cc2NC1=O (stereo not drawn) [Compound 17] | 3 (a compound showing more than 50% inhibition at 5 μM is reported as score 3) | –
– | – | – | 6.6 | 6.6 | CCN1Cc2ccc(C(C)(C#N)Cc3nc(OC)cc(OC)n3)cc2NC1=O (stereo not drawn) [Compound 18] | 3 (a compound showing more than 50% inhibition at 5 μM is reported as score 3) | –
– | – | – | 6.2 | 6.4 | CCN1Cc2ccc(C(C)(C#N)Cc3cc(OC)cc(OC)c3)cc2NC1=O (stereo not drawn) [Compound 19] | 3 (a compound showing more than 50% inhibition at 5 μM is reported as score 3) | 6.5
– | – | – | 6.2 | 6.4 | CCN1Cc2ccc(C(C)(C#N)Cc3cc(Cl)cc(Cl)c3)cc2NC1=O (stereo not drawn) [Compound 20] | – | 6.5
– | – | – | 6.1 | 6.3 | CCN1Cc2ccc(C(C)(C#N)Cc3cccc(C#N)n3)cc2NC1=O (stereo not drawn) [Compound 21] | 2 | 5.5
– | – | – | 6.4 | 6.7 | CCN1Cc2ccc(C(C)(C#N)Cc3cccc(C)c3)cc2NC1=O (stereo not drawn) [Compound 22] | – | –
– | – | – | 6.3 | 6.4 | CCN1Cc2ccc(C(C)(C#N)Cc3nc4ccccc4s3)cc2NC1=O (stereo not drawn) [Compound 23] | – | –
– | – | – | 6.6 | 6.8 | CCN1Cc2ccc(C(C)(C#N)Cc3cccc(F)c3)cc2NC1=O (stereo not drawn) [Compound 24] | – | –
– | – | – | 6.3 | 6.3 | CCN1Cc2cc(F)c(C(C)(C#N)Cc3nc(OC)cc(OC)n3)cc2NC1=O (stereo not drawn) [Compound 25] | 3 (a compound showing more than 50% inhibition at 5 μM is reported as score 3) | 6.5
– | – | – | 6.3 | 6.6 | CCN1Cc2cc(F)c(C(C)(C#N)Cc3cccc(C#N)c3)cc2NC1=O (stereo not drawn) [Compound 26] | 3 (a compound showing more than 50% inhibition at 5 μM is reported as score 3) | 6.5
– | – | – | 6.8 | 7.1 | CN1Cc2ccc([C@@](C)(C#N)Cc3cccc(C#N)c3)cc2NC1=O [Compound 27] | 3 (a compound showing more than 50% inhibition at 5 μM is reported as score 3) | 6.5
– | – | – | 6.5 | 6.8 | CN1Cc2ccc(C(C)(C#N)Cc3cccc(C#N)c3)cc2NC1=O (stereo not drawn) [Compound 28] | 3 (a compound showing more than 50% inhibition at 5 μM is reported as score 3) | 6.5
– | – | – | 6.0 | 6.4 | CCN1Cc2ccc(C(C#N)(CC)Cc3nc(OC)cc(OC)n3)cc2NC1=O (stereo not drawn) [Compound 30] | 3 (a compound showing more than 50% inhibition at 5 μM is reported as score 3) | 6.5
– | – | – | 6.6 | 6.7 | CCN1Cc2ccc(C(C)(C#N)Cc3cccc(C#CCOC)c3)cc2NC1=O (stereo not drawn) [Compound 36] | 3 (a compound showing more than 50% inhibition at 5 μM is reported as score 3) | 7
